Laboratory results reported in PubChem BioAssay (NCI).
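Five concentrations, 48 hours, 96-well plates. TGI is the concentration that stops growth completely.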

Legend:
Test in all cases: DTP human tumour cell line panel, 48 h
CAKI-1 renal = tested on: CAKI-1 renal
HL-60(TB) leukemia = tested on: HL-60(TB) leukemia
EKVX NSCLC = tested on: EKVX NSCLC
MOLT-4 leukemia = tested on: MOLT-4 leukemia
SK-MEL-2 melanoma = tested on: SK-MEL-2 melanoma
ACHN renal = tested on: ACHN renal
KM20L2 colon = tested on: KM20L2 colon
HOP-62 NSCLC = tested on: HOP-62 NSCLC
LXFL 529 NSCLC = tested on: LXFL 529 NSCLC
786-0 renal = tested on: 786-0 renal
SF-268 CNS = tested on: SF-268 CNS
NCI-H226 lung = tested on: NCI-H226 lung
OVCAR-8 ovarian = tested on: OVCAR-8 ovarian
HT29 colon = tested on: HT29 colon
NCI-H522 lung = tested on: NCI-H522 lung
DMS 114 small cell lung = tested on: DMS 114 small cell lung
K-562 leukemia = tested on: K-562 leukemia
SK-OV-3 ovarian = tested on: SK-OV-3 ovarian
RXF 393 renal = tested on: RXF 393 renal
UACC-62 melanoma = tested on: UACC-62 melanoma
SF-295 CNS = tested on: SF-295 CNS
TK-10 renal = tested on: TK-10 renal
RPMI-8226 leukemia = tested on: RPMI-8226 leukemia
OVCAR-5 ovarian = tested on: OVCAR-5 ovarian
NCI-H460 lung = tested on: NCI-H460 lung
HCT-15 colon = tested on: HCT-15 colon
M14 melanoma = tested on: M14 melanoma
HCC-2998 colon = tested on: HCC-2998 colon
UACC-257 melanoma = tested on: UACC-257 melanoma
NCI-H23 lung = tested on: NCI-H23 lung
SNB-75 CNS = tested on: SNB-75 CNS
SNB-19 CNS = tested on: SNB-19 CNS
MALME-3M melanoma = tested on: MALME-3M melanoma
COLO 205 colon = tested on: COLO 205 colon
OVCAR-3 ovarian = tested on: OVCAR-3 ovarian
SW-620 colon = tested on: SW-620 colon
SK-MEL-28 melanoma = tested on: SK-MEL-28 melanoma
SK-MEL-5 melanoma = tested on: SK-MEL-5 melanoma
SF-539 CNS = tested on: SF-539 CNS
SN12C renal = tested on: SN12C renal
M19-MEL melanoma = tested on: M19-MEL melanoma
KM12 colon = tested on: KM12 colon
A549 NSCLC = tested on: A549 NSCLC
SNB-78 CNS = tested on: SNB-78 CNS
DMS 273 small cell lung = tested on: DMS 273 small cell lung
U251 CNS = tested on: U251 CNS
RXF-631 renal = tested on: RXF-631 renal
HCT-116 colon = tested on: HCT-116 colon
OVCAR-4 ovarian = tested on: OVCAR-4 ovarian
IGROV1 ovarian = tested on: IGROV1 ovarian
CCRF-CEM leukemia = tested on: CCRF-CEM leukemia
HOP-92 NSCLC = tested on: HOP-92 NSCLC
A498 renal = tested on: A498 renal
UO-31 renal = tested on: UO-31 renal
LOX IMVI melanoma = tested on: LOX IMVI melanoma
SR leukemia = tested on: SR leukemia
DLD-1 colon = tested on: DLD-1 colon
XF 498 CNS = tested on: XF 498 CNS
HOP-18 NSCLC = tested on: HOP-18 NSCLC

Measured: TGI

CCN(CC)C(c1ccc(N(C)C)cc1)C(c1ccc(N(C)C)cc1)N(CC)CC (configuration not stated)
45.7 µM: HOP-92 NSCLC
50.3 µM: MALME-3M melanoma
> 73 µM: CAKI-1 renal | EKVX NSCLC | MOLT-4 leukemia | SK-MEL-2 melanoma | ACHN renal | KM20L2 colon | HOP-62 NSCLC | LXFL 529 NSCLC | 786-0 renal | SF-268 CNS | NCI-H226 lung | OVCAR-8 ovarian | HT29 colon | K-562 leukemia | SK-OV-3 ovarian | RXF 393 renal | UACC-62 melanoma | SF-295 CNS | TK-10 renal | RPMI-8226 leukemia | OVCAR-5 ovarian | NCI-H460 lung | HCT-15 colon | M14 melanoma | HCC-2998 colon | UACC-257 melanoma | NCI-H23 lung | SNB-75 CNS | SNB-19 CNS | COLO 205 colon | OVCAR-3 ovarian | SW-620 colon | SK-MEL-28 melanoma | SK-MEL-5 melanoma | SF-539 CNS | SN12C renal | M19-MEL melanoma | KM12 colon | A549 NSCLC | SNB-78 CNS | DMS 273 small cell lung | U251 CNS | RXF-631 renal | HCT-116 colon | OVCAR-4 ovarian | IGROV1 ovarian | CCRF-CEM leukemia | A498 renal
40.6 µM: DMS 114 small cell lung
38.3 µM: HL-60(TB) leukemia
> 7.3 µM: NCI-H522 lung

COc1ccc2c(c1)C(=O)Cc1ccccc1CC2
> 100 µM: CAKI-1 renal | UO-31 renal | HL-60(TB) leukemia | EKVX NSCLC | MOLT-4 leukemia | SK-MEL-2 melanoma | ACHN renal | KM20L2 colon | LXFL 529 NSCLC | 786-0 renal | LOX IMVI melanoma | SF-268 CNS | NCI-H226 lung | OVCAR-8 ovarian | HT29 colon | SR leukemia | NCI-H522 lung | DMS 114 small cell lung | K-562 leukemia | SK-OV-3 ovarian | RXF 393 renal | UACC-62 melanoma | SF-295 CNS | TK-10 renal | RPMI-8226 leukemia | OVCAR-5 ovarian | NCI-H460 lung | HCT-15 colon | M14 melanoma | HCC-2998 colon | DLD-1 colon | UACC-257 melanoma | NCI-H23 lung | SNB-75 CNS | SNB-19 CNS | MALME-3M melanoma | COLO 205 colon | OVCAR-3 ovarian | SW-620 colon | SK-MEL-28 melanoma | SK-MEL-5 melanoma | SF-539 CNS | SN12C renal | M19-MEL melanoma | KM12 colon | A549 NSCLC | SNB-78 CNS | DMS 273 small cell lung | XF 498 CNS | U251 CNS | HOP-18 NSCLC | HCT-116 colon | OVCAR-4 ovarian | IGROV1 ovarian | CCRF-CEM leukemia | HOP-92 NSCLC | A498 renal

CC(=O)OCC1OC(NC(=S)N/N=C2\CC(c3ccccc3)Oc3ccccc32)C(OC(C)=O)C(OC(C)=O)C1OC(C)=O (configuration not stated)
> 100 µM: CAKI-1 renal | UO-31 renal | HL-60(TB) leukemia | EKVX NSCLC | MOLT-4 leukemia | ACHN renal | KM20L2 colon | HOP-62 NSCLC | LXFL 529 NSCLC | 786-0 renal | LOX IMVI melanoma | SF-268 CNS | NCI-H226 lung | OVCAR-8 ovarian | HT29 colon | SR leukemia | NCI-H522 lung | DMS 114 small cell lung | K-562 leukemia | SK-OV-3 ovarian | RXF 393 renal | UACC-62 melanoma | SF-295 CNS | TK-10 renal | RPMI-8226 leukemia | OVCAR-5 ovarian | NCI-H460 lung | HCT-15 colon | M14 melanoma | HCC-2998 colon | DLD-1 colon | UACC-257 melanoma | NCI-H23 lung | SNB-75 CNS | SNB-19 CNS | MALME-3M melanoma | COLO 205 colon | OVCAR-3 ovarian | SW-620 colon | SK-MEL-5 melanoma | SF-539 CNS | SN12C renal | M19-MEL melanoma | KM12 colon | A549 NSCLC | SNB-78 CNS | DMS 273 small cell lung | XF 498 CNS | U251 CNS | RXF-631 renal | HOP-18 NSCLC | HCT-116 colon | OVCAR-4 ovarian | IGROV1 ovarian | CCRF-CEM leukemia | HOP-92 NSCLC | A498 renal
